Consider eleven compounds from ChEMBL document CHEMBL1909046, “DrugMatrix in vitro pharmacology data”.

Experiment [1] can be described thus: DRUGMATRIX: Imidazoline I2, Central radioligand binding (ligand: [3H] Idazoxan). The experiment is classed as cell membranes, Rattus norvegicus, Wistar, Cerebral cortex, Membrane. The following applies: Not Active = under 50% inhibition at 10 µM.
Experiment [2] is described as follows: DRUGMATRIX: Glutamate, NMDA, Phencyclidine radioligand binding (ligand: [3H] TCP). The experiment is classed as cell membranes, Rattus norvegicus, Wistar, Cerebral cortex, Membrane. The following applies: Not Active = under 50% inhibition at 10 µM.
Experiment [3] has as its target Kappa-type opioid receptor (Homo sapiens, UniProt P41145). Put plainly: DRUGMATRIX: Opiate kappa (OP2, KOP) radioligand binding (ligand: [3H] Diprenorphine). The experiment is classed as cell membranes, HEK293, Membrane. The settings on record: hek293; Not Active = under 50% inhibition at 10 µM.
In experiment [4] the target is Matrix metalloproteinase-9 (Homo sapiens, UniProt P14780). Put plainly: biochemical. The experiment is classed as cell-based.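 Note: inhibition of isolated MMP-9 enzyme activity toward a synthetic peptide substrate, from the DrugMatrix protease screening panel; in other assays of this panel Not Active means under 50% inhibition at 10 µM.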
Experiment [5] addresses Vascular endothelial growth factor receptor 1 (Homo sapiens, UniProt P17948). The experiment is classed as cell-based. The following applies: huvec.
For the next experiment, the target named is T1, Interstitial collagenase (Homo sapiens, UniProt P03956).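 Note: MMP-1 enzyme inhibition assay using a peptide substrate; in other assays of this panel Not Active means under 50% inhibition at 10 µM.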
T1 sequence (P03956 whole entry): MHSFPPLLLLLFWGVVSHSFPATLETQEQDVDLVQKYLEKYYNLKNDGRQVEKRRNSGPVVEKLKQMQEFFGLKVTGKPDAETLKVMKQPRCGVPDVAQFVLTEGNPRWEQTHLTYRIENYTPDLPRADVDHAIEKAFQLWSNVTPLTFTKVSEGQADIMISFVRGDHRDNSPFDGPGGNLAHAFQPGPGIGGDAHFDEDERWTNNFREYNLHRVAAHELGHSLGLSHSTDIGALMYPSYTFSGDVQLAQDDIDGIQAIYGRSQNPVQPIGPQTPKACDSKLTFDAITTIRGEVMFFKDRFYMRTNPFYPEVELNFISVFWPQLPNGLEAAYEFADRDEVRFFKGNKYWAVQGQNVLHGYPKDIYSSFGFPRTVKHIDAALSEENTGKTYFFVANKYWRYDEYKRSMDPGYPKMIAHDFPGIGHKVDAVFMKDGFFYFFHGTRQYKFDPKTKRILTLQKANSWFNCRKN
Put plainly: biochemical. The experiment is classed as tissue-based, Rheumatoid synovial fibroblasts.

Experiment [6] addresses 5-hydroxytryptamine receptor 4 (Cavia porcellus, UniProt O70528). The experiment is classed as cell membranes, Dunkin-Hartley, Striatum, Membrane.

Chain of Matrix metalloproteinase-9 (P14780 whole entry): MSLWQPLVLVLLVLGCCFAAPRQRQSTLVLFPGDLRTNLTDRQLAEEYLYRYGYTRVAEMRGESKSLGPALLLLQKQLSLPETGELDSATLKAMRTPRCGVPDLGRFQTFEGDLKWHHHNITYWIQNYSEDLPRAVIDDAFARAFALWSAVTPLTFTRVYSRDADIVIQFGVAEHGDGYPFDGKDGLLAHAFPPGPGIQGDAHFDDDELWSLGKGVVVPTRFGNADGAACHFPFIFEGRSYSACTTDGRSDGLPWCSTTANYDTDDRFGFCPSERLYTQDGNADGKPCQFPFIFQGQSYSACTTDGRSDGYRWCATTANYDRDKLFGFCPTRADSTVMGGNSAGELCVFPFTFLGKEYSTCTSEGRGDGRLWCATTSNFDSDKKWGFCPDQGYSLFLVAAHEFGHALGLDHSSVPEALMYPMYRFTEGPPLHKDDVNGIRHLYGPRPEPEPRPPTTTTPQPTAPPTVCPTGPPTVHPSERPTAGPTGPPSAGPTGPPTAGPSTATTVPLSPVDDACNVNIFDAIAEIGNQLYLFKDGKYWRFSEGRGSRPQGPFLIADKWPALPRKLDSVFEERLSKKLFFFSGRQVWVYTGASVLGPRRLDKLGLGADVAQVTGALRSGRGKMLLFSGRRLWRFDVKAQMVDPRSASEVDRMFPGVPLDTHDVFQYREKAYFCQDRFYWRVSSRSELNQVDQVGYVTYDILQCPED
Chain of Vascular endothelial growth factor receptor 1 (P17948 whole entry): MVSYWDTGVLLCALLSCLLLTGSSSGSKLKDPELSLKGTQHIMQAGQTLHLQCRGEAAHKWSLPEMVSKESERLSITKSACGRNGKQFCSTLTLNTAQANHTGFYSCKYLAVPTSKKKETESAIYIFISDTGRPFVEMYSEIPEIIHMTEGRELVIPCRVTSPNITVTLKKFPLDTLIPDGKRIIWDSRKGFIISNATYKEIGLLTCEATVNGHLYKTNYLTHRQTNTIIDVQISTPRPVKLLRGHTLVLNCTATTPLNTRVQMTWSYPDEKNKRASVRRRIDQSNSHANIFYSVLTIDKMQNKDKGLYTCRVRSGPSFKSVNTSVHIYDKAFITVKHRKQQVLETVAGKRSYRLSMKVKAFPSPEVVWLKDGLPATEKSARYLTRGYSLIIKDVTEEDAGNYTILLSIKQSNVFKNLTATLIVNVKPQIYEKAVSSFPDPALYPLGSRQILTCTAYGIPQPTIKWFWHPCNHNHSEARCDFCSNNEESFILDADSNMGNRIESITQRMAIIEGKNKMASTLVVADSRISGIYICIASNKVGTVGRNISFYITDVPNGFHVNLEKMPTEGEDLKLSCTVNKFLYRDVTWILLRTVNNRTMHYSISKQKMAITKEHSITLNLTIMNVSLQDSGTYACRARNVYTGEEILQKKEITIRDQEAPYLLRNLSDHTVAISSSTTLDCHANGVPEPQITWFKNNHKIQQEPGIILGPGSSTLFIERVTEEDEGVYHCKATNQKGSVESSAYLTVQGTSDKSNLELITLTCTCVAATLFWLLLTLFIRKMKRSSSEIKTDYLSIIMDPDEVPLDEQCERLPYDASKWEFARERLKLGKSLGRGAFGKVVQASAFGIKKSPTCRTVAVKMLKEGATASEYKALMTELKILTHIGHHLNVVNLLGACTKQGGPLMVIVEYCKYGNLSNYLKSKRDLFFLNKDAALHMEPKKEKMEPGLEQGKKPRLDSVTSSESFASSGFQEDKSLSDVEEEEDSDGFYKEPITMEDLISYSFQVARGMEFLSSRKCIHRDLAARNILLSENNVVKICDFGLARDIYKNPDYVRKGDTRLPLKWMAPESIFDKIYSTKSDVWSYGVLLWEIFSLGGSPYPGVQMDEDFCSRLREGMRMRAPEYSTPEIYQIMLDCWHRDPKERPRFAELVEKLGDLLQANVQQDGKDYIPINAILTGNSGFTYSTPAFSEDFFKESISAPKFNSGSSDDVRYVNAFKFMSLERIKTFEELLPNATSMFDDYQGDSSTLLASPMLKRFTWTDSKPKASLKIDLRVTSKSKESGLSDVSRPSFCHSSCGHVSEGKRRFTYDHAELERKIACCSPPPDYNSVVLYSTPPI
Chain of 5-hydroxytryptamine receptor 4 (O70528 whole entry): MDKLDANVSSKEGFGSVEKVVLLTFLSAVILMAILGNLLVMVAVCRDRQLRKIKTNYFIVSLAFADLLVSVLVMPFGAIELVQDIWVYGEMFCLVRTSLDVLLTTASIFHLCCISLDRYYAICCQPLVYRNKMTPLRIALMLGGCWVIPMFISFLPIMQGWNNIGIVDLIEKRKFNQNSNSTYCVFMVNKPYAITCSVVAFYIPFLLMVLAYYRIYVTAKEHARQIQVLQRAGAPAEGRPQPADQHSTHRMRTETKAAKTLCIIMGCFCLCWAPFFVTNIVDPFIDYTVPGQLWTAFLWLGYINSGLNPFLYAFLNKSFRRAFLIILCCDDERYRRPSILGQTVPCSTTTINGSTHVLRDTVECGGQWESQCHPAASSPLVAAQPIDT
Chain of Kappa-type opioid receptor (P41145 whole entry): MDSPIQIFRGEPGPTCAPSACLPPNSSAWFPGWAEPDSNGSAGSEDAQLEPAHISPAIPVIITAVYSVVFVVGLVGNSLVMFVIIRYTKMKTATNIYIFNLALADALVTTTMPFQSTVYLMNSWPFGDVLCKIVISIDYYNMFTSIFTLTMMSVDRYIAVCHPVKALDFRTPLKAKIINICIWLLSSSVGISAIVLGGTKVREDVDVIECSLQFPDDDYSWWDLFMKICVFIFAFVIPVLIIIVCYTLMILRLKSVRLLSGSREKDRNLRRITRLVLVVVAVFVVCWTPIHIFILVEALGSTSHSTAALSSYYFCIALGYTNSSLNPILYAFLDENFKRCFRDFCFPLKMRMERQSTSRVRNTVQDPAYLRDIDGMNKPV

As a reminder, the IC50 is the concentration that gives 50% inhibition. In general, Ki refers to the equilibrium dissociation constant of an inhibitor or competing ligand from its target. Take `CCCCN1CCCC[C@H]1C(=O)Nc1c(C)cccc1C` [LEVOBUPIVACAINE]: the IC50 result (in experiment [1]; in experiment [2]; in experiment [3]; in experiment [4]; in experiment [5]; at Interstitial collagenase) was “Not Active” each time. Moreover, the concentration for half-maximal inhibition (IC50) result in experiment [6] is “Not Active”. Besides, the Ki entry in experiment [1] and in experiment [2] was “Not Active” in each case.

For `Cc1onc(O)c1CC(N)C(=O)O` (racemic) [(R,S)-AMPA], the IC50 entry (in experiment [1]; in experiment [2]; in experiment [3]; in experiment [4]; in experiment [5]; at Interstitial collagenase) was “Not Active” each time. The half-inhibitory concentration (IC50) entry in experiment [6] is on record as “Not Active”. Also, the Ki result in experiment [1] and in experiment [2] was “Not Active” in each case.

Take `CC1CC(OC(=O)C(O)c2ccccc2)CC(C)(C)C1` (stereo not given) [CYCLANDELATE]: the IC50 result (in experiment [1]; in experiment [2]; in experiment [3]; in experiment [4]; in experiment [5]; on Interstitial collagenase) was “Not Active” throughout. In addition, the IC50 entry in experiment [6] was “Not Active”. Also, the inhibitory constant (Ki) entry in experiment [1] and in experiment [2] was “Not Active” throughout.

For `COCCc1ccc(OCC(O)CNC(C)C)cc1` (stereo not given) [METOPROLOL], the IC50 result (in experiment [1]; in experiment [2]; in experiment [3]; in experiment [4]; in experiment [5]; against Interstitial collagenase) was “Not Active” in each case. Also, the IC50 result in experiment [6] is “Not Active”. For the same compound, the inhibition constant (Ki) result in experiment [1] and in experiment [2] was “Not Active” in each case.

For `Cc1ccc(-c2cc(C(F)(F)F)nn2-c2ccc(S(N)(=O)=O)cc2)cc1` [CELECOXIB], the IC50 entry (in experiment [1]; in experiment [2]; in experiment [3]; in experiment [4]; in experiment [5]; against Interstitial collagenase) was “Not Active” each time. Moreover, the IC50 result in experiment [6] is “Not Active”. In addition, the inhibitory constant (Ki) result in experiment [1] and in experiment [2] was “Not Active” in each case.

Take `c1ccc(Nc2ccc(Nc3ccccc3)cc2)cc1`: the IC50 entry (in experiment [1]; in experiment [2]; in experiment [3]; in experiment [4]; in experiment [5]; at Interstitial collagenase) was “Not Active” throughout. Also, the IC50 entry in experiment [6] is “Not Active”. Further, the Ki result in experiment [1] and in experiment [2] was “Not Active” throughout.

With `Cc1onc(-c2ccccc2Cl)c1C(=O)N[C@@H]1C(=O)N2[C@@H]1SC(C)(C)[C@@H]2C(=O)O` [CLOXACILLIN], the concentration for half-maximal inhibition (IC50) entry (in experiment [1]; in experiment [2]; in experiment [3]; in experiment [4]; in experiment [5]; on Interstitial collagenase) was “Not Active” in each case. The IC50 result in experiment [6] is “Not Active”. For the same compound, the Ki entry in experiment [1] and in experiment [2] was “Not Active” in each case.

`CC(C)C(=O)Nc1ccc([N+](=O)[O-])c(C(F)(F)F)c1` [FLUTAMIDE]: the IC50 result (in experiment [1]; in experiment [2]; in experiment [3]; in experiment [4]; in experiment [5]; at Interstitial collagenase) was “Not Active” each time. In addition, in experiment [6] (read-out: IC50), the IC50 was determined as 13.5 µM. Further, the inhibition constant Ki entry in experiment [1] was “Not Active”; in experiment [2] it was “Not Active”; in experiment [6] (read-out: Ki) it was 2.26 µM.

As to `CC[C@@]1(O)C[C@H](O[C@H]2C[C@H](N(C)C)[C@H](O[C@H]3C[C@H](O)[C@H](O[C@H]4CCC(=O)[C@H](C)O4)[C@H](C)O3)[C@H](C)O2)c2c(cc3c(c2O)C(=O)c2c(O)cccc2C3=O)[C@H]1C(=O)OC` [ACLARUBICIN], the concentration for half-maximal inhibition (IC50) result (in experiment [1]; in experiment [2]; in experiment [3]; in experiment [4]; in experiment [5]; at Interstitial collagenase) was “Not Active” throughout. The half-maximal inhibitory concentration (IC50) result in experiment [6] is on record as “Not Active”. The inhibition constant (Ki) entry in experiment [1] and in experiment [2] was “Not Active” each time.

As to `Nc1nc2c(ncn2CCC(CO)CO)c(=O)[nH]1` [PENCICLOVIR], the 50% inhibitory concentration (IC50) result (in experiment [1]; in experiment [2]; in experiment [3]; in experiment [4]; in experiment [5]; against Interstitial collagenase) was “Not Active” each time. Moreover, the half-inhibitory concentration (IC50) result in experiment [6] was “Not Active”. Moreover, the Ki entry in experiment [1] and in experiment [2] was “Not Active” each time.

In the case of `O=c1oc2ccccc2c(O)c1Cc1c(O)c2ccccc2oc1=O` [DICUMAROL], the half-maximal inhibitory concentration (IC50) entry (in experiment [1]; in experiment [2]; in experiment [3]; in experiment [4]; in experiment [5]; on Interstitial collagenase) was “Not Active” each time. The concentration for half-maximal inhibition (IC50) entry in experiment [6] was “Not Active”. Besides, the inhibition constant Ki result in experiment [1] and in experiment [2] was “Not Active” in each case.
